System: SMN2-luciferase reporter
Experiment: SMN2-luciferase reporter qHTS assay
Type: cell-based, human
Set-up: key to Curve Class: A curve class of 1.1 is a full agonist/antagonist; a curve class of 4 indicates the compound is inactive
Settings: for Curve Class: agonist/antagonist character of the concentration-response, lower values = more significant concentration-response; for Increased SMN2 activity: percent increase (or decrease) in SMN2 levels compared to control in which no test compound is added
Excerpt: A cell-based quantitative high throughput screening (qHTS) assay is used to identify compounds able to increase SMN production. The assay uses a SMN2-luciferase reporter to determine if exon 7 of the SMN gene is expressed, which correlates with increased full-length SMN production from the SMN2 gene. As controls, a homologue SMN1-luciferase reporter cell line looks for variations in expression of the SMN1 gene and a cell line with just the luciferase reporter looks at the capacity of the compounds to inhibit luciferase. In addition, increments in SMN production by lead compounds were confirmed by Western-Blot analysis using SMA patient fibroblasts.
For the qHTS assay, concentration-response profiles are generated at the primary-screen level for each library compound to minimize the number of false positives. A dilution series consisting of seven points separated by five-fold concentration differences is prepared for each compound, yielding a concentration series that spans a range of about four orders of magnitude, for example from a high concentration of 50 micromolar to a low concentration of 3.2 nanomolar and providing adequate data for fitting to a Hill equation. For the assay, the SMN2 reporter cell line was plated at a density of ˜2000 cells/well in complete media (phenol red free DMEM, 10% detacl calf serum, and 1× pen/strep), in 1536 well white solid bottom tissue culture treated plates (Greiner). Cells were allowed to adhere and recover at 37 C in 5% CO2 for 10-12 hours. Compounds were added to the plates by a Pintool (Kalypsys) at a volume of 23 nl/well. Cells were incubated in the presence of compounds for 2 days at 37 C in 5% CO2. In order to quantify luciferase reporter levels, 3 ul/well of OneGlo (Promega) was added to each well and incubated at room temperature for 10 minutes. Luminescence from the reporter in each well is measured using a Viewlux CCD based imager (Perkin Elmer) with an integration time of 30 seconds and a binning of 2× in luminescence mode. Sodium butyrate was used as the positive control compound for luciferase induction and a column of 32 wells of 9.2 mM compound on each plate was used to monitor assay performance.
The SMN reporters used herein are modified from those previously described (M. L. Zhang, C. L. Lorson, E. J. Androphy and J. Zhou, An in vivo reporter system for measuring increased inclusion of exon 7 in SMN2 mRNA: potential therapy of SMA, Gene Ther 8 (2001), pp. 1532-1538.)
The sequence of the SMN1 reporter vector used herein is given in SEQ ID NO.:1, while that of the SMN2 reporter vector is given in SEQ ID NO.:2.
Each of the SMN reporters is constructed from three separate DNA fragments: (1) an SMN promotor sequence from the transcriptional reporter p 4.0T (SMN1) or p3.4C (SMN2) described in Monani, et al. Biochimica et Biophysica Acta 1445 (1999) 330-336; (2) a modification of the firefly luciferase splicing reporter for SMN1 or SMN2 described by Zhang et al; and (3) a 744 bp SMN cDNA fragment.
The 3.7 kB SMN1 promoter fragment is obtained by restriction of p4.0T with BglII and SacII. A 3.4 kB SMN2 promoter fragment is obtained by restriction of p3.4C with KpnI and SacII; a 300 bp BglII/KpnI fragment from p4.0T is then added to the 3.4 kB SMN2 promoter fragment to yield the final 3.7 kB SMN2 promoter fragment.
The modified SMN1 and SMN2 firefly luciferase splicing reporters are obtained by removing 4 kB of intron 6 in the original reporter system by restriction with SmaI/Swa followed by religation of the reporter. A 4 kB luciferase splicing reporter is then obtaind by digestion with XhoI and NotI.
Ths SMN cDNA fragment is obtained by generating the productof a polymerase chain reaction (PCR) on a cDNA preparation using […] (SEQ ID NO:3) as the forward primer and Tatctcgagtggtccagaaggaaatggaggcagcc (SEQ ID NO:4) as the reverse primer. The PCR product is then digested with XhoI and SacII. […]

SMILES	Curve Class	Increased SMN2 activity
CC(=O)N1CCN(c2nc(-c3ccc(Br)cc3)cs2)CC1 [Example 110, 1-(4-(4-(4-Bromophenyl)Thiazol-2-yl)Piperazin-1-yl)Ethanone]	1.1	234.5%
NC(=O)C1CCN(c2nc(-c3ccccc3F)cs2)CC1 [Example 38, 1-(4-(2-Fluorophenyl)Thiazol-2-yl)Piperidine-4-Carboxamide]	1.1	274.6%
NC(=O)C1CCN(c2nc(-c3ccc(-c4ccccc4)cc3)cs2)CC1 [Example 28, 1-(4-(Biphenyl-4-yl)Thiazol-2-yl)Piperidine-4-Carboxamide]	2.2	58.07%
Brc1ccc(-c2csc(N3CCCCC3)n2)cc1 [Example 32, 4-(4-Bromophenyl)-2-(Piperidin-1-yl)Thiazole]	2.1	272.6%
NC(=O)C1CCN(c2ncc(-c3cccc(F)c3)s2)CC1 [Example 121, 1-(5-(3-Fluorophenyl)Thiazol-2-yl)Piperidine-4-Carboxamide]	1.1	601.5%
CNC(=O)C1CCN(c2nc(-c3ccc(Br)cc3)cs2)CC1 [Example 70, 1-(4-(4-Bromophenyl)Thiazol-2-yl)-N-Methylpiperidine-4-Carboxamide]	2.1	101.9%
NC(=O)C1CCN(c2nc(-c3ccc(OC(F)(F)F)cc3)cs2)CC1 [Example 95, 1-(4-(4-(Trifluoromethoxy)Phenyl)Thiazol-2-yl)Piperidine-4-Carboxamide]	1.1	296.8%
NC(=O)C1CCN(c2nc(-c3ccc(N4CCCCC4)nc3)cs2)CC1 [Example 60, 1-(4-(6-(Piperidin-1-yl)Pyridin-3-yl)Thiazol-2-yl)Piperidine-4-Carboxamide]	2.1	100%
CC(C)(C)c1ccc(-c2csc(N3CCC(C(N)=O)CC3)n2)cc1 [Example 98, 1-(4-(4-Tert-Butylphenyl)Thiazol-2-yl)Piperidine-4-Carboxamide]	1.1	243.3%
COc1cc(OC)cc(-c2csc(N3CCC(C(N)=O)CC3)n2)c1 [Example 85, 1-(4-(3,5-Dimethoxyphenyl)Thiazol-2-yl)Piperidine-4-Carboxamide]	1.4	44.77%
Cc1ccc(-c2nnc(N3CCC(C(N)=O)CC3)s2)cc1 [Example 133, 1-(5-P-Tolyl-1,3,4-Thiadiazol-2-yl)Piperidine-4-Carboxamide]	1.2	54%
Brc1ccc(-c2csc(N3CCNCC3)n2)cc1 [Example 108, 4-(4-Bromophenyl)-2-(Piperazin-1-yl)Thiazole]	−2.1	−97.29%
Cc1ccc(-c2ccnc(N3CCC(C(N)=O)CC3)n2)cc1 [Example 126, 1-(4-P-Tolylpyrimidin-2-yl)Piperidine-4-Carboxamide]	1.1	444.6%
NC(=O)C1CCN(c2nc(-c3ccc4c(c3)OCCCO4)cs2)CC1 [Example 99, 1-(4-(3,4-Dihydro-2H-Benzo[B][1,4]Dioxepin-7-yl)Thiazol-2-yl)Piperidine-4-Carboxamide]	1.1	443.2%
CC(C)Oc1cccc(-c2ccnc(N3CCC(C(N)=O)CC3)n2)c1 [Example 127, 1-(4-(3-Isopropoxyphenyl)Pyrimidin-2-yl)Piperidine-4-Carboxamide]	1.1	298.225%
CN(C)C(=O)c1cccc(-c2csc(N3CCC(C(N)=O)CC3)n2)c1 [Example 62, 1-(4-(3-(Dimethylcarbamoyl)Phenyl)Thiazol-2-yl)Piperidine-4-Carboxamide]	2.2	51.18%
NC(=O)C1CCN(c2nc(-c3cccc4sc5ccccc5c34)cs2)CC1 [Example 64, 1-(4-(Dibenzo[b,d]Thiophen-1-yl)Thiazol-2-yl)Piperidine-4-Carboxamide]	2.1	369%
NC(=O)C1CCN(c2nnc(-c3ccc4c(c3)OCCCO4)s2)CC1 [Example 130, 1-(5-(3,4-Dihydro-2H-Benzo[B][1,4]Dioxepin-7-yl)-1,3,4-Thiadiazol-2-yl)Piperidine-4-Carboxamide]	1.1	257.1%
NC(=O)C1CCN(c2cc(-c3ccc4c(c3)OCCCO4)ncn2)CC1 [Example 142, 1-(6-(3,4-Dihydro-2H-Benzo[B][1,4]Dioxepin-7-yl)Pyrimidin-4-yl)Piperidine-4-Carboxamide]	1.1	211.1%
c1c[nH]c(C2CCN(c3ncc(-c4ccc5c(c4)OCCCO5)s3)CC2)n1 [Example 135, 2-(4-(1H-Imidazol-2-yl)Piperidin-1-yl)-5-(3,4-Dihydro-2H-Benzo[B][1,4] Dioxepin-7-yl)Thiazole]	1.1	129.4%
NC(=O)C1CCN(c2nc(-c3cccc(C(F)(F)F)c3)cs2)CC1 [Example 81, 1-(4-(3-(Trifluoromethyl)Phenyl)Thiazol-2-yl)Piperidine-4-Carboxamide]	2.2	100%
NC(=O)C1CCN(c2nccc(-c3ccc4c(c3)OCCO4)n2)CC1 [Example 129, 1-(4-(2,3-Dihydrobenzo[B][1,4]Dioxin-6-yl)Pyrimidin-2-yl)Piperidine-4-Carboxamide]	1.1	364.3%
CCOc1ccc(-c2csc(N3CCC(C(N)=O)CC3)n2)cc1 [Example 96, 1-(4-(4-Ethoxyphenyl)Thiazol-2-yl)Piperidine-4-Carboxamide]	1.1	211.6%
NC(=O)C1CCN(c2nc(-c3ccc(Cl)cc3)cs2)CC1 [Example 20, 1-(4-(4-Chlorophenyl)Thiazol-2-yl)Piperidine-4-Carboxamide]	1.1	380.6%
NC(=O)C1CCN(c2nc(-c3ccc4ccccc4c3)cs2)CC1 [Example 56, 1-(4-(Naphthalen-2-yl)Thiazol-2-yl)Piperidine-4-Carboxamide]	1.1	162%
NC(=O)C1CCN(c2ncc(-c3ccc(Cl)cc3)s2)CC1 [Example 122, 1-(5-(4-Chlorophenyl)Thiazol-2-yl)Piperidine-4-Carboxamide]	1.1	498.3%
NC(=O)C1CCN(c2nc(-c3ccc(F)cc3)cs2)CC1 [Example 19, 1-(4-(4-Fluorophenyl)Thiazol-2-yl)Piperidine-4-Carboxamide]	1.1	287.7%
CC(=O)c1cccc(-c2csc(N3CCC(C(N)=O)CC3)n2)c1 [Example 55, 1-(4-(3-Acetylphenyl)Thiazol-2-yl)Piperidine-4-Carboxamide]	1.1	356%
NC(=O)C1CCN(c2nc(-c3ccccc3)cs2)CC1 [Example 30, 1-(4-Phenylthiazol-2-yl)Piperidine-4-Carboxamide]	1.1	166.6%

Source: patent US20130096160A1, “ARYLTHIAZOLYL PIPERIDINES AND RELATED COMPOUNDS AS MODULATORS OF SURVIVAL MOTOR NEURON (SMN) PROTEIN PRODUCTION” (Secretary, Department of Health and Human Services, priority 2010, published 2013)
